The text below walks through data of patent publication US20150141381A1, “TETRACYCLINE COMPOUNDS HAVING TARGET THERAPEUTIC ACTIVITIES” (Paratek Pharmaceuticals, Inc., priority 2001, published 2015).

Read-outs that look alike come from different tables or passages of the source.

For one assay, the system named is S. aureus RN450. The experiment in a line: In Vitro Anti-Bacterial Activity Assay (MIC), gram positive. The format is cell-based. The following applies: Staphylococcus aureus, RN450, 18 h.
In another assay the test system is E. coli mL308 225. The assay can be described thus: In Vitro Anti-Bacterial Activity Assay (MIC), gram negative. Format: cell-based. The following applies: Escherichia coli, ML308225, 18 h.
[1] abbreviates: MIC class, Table 3, read-out: Antibiotic Activity Gram +.
[2] abbreviates: MIC class, Table 3, read-out: Antibiotic Activity Gram −.
Setting [3] is: gram positive bacteria, read-out: Antibiotic Activity Gram + (MIC).
Where [4] appears, read: gram negative bacteria, read-out: Antibiotic Activity Gram − (MIC).
Setting [5] is: MIC class, Table 3 (Continued), read-out: Gram+ activity.
The mark [6] stands for this setting: MIC class, Table 3 (Continued), read-out: Gram− activity.

Regarding `CCOC(=O)NCc1cc(N(C)C)c2c(c1O)C(=O)C1=C(O)[C@]3(O)C(=O)C(C(N)=O)=C(O)[C@H](N(C)C)[C@@H]3C[C@@H]1C2` [ES], the MIC in the assay on S. aureus RN450 (setting [1]) is below 4 µg/mL; in the assay on E. coli mL308 225 (setting [2]), above 4 µg/mL.
Take `CN(C)CCC(=O)c1ccc(O)c2c1C[C@H]1C[C@H]3[C@H](N(C)C)C(O)=C(C(N)=O)C(=O)[C@@]3(O)C(O)=C1C2=O` [drawing 3401]: the MIC with S. aureus RN450 (setting [3]) is below 4 µg/mL; in the assay on E. coli mL308 225 (setting [4]) it was above 4 µg/mL.
Regarding `CN(C)CC#Cc1cc(C(C)(C)C)c(O)c2c1C[C@H]1C[C@H]3[C@H](N(C)C)C(O)=C(C(N)=O)C(=O)[C@@]3(O)C(O)=C1C2=O` [GD], the MIC in the assay on S. aureus RN450 (setting [1]) was below 4 µg/mL; with E. coli mL308 225 (setting [2]), above 4 µg/mL.
For `CC(=O)O[C@@H]1[C@H]2[C@H](N(C)C)C(O)=C(C(N)=O)C(=O)[C@@]2(O)C(O)=C2C(=O)c3c(O)cccc3C(C)[C@H]21` (stereo partly shown), the MIC with S. aureus RN450 (setting [5]) and in the assay on E. coli mL308 225 (setting [6]) was below 4 µg/mL throughout.
In the case of `COC(CN(Cc1ccc(O)c2c1C[C@H]1C[C@H]3[C@@H](N(C)C)C(O)=C(C(N)=O)C(=O)[C@@]3(O)C(O)=C1C2=O)CC(OC)OC)OC` [KD], the MIC in the assay with S. aureus RN450 (setting [1]) is below 4 µg/mL; in the assay on E. coli mL308 225 (setting [2]), above 4 µg/mL.
Regarding `C#Cc1cc(N(C)C)c2c(c1O)C(=O)C1=C(O)[C@]3(O)C(=O)C(C(N)=O)=C(O)C(N(C)C)[C@@H]3C[C@@H]1C2` (stereo partly shown), the MIC with S. aureus RN450 (setting [5]) is below 4 µg/mL; in the assay with E. coli mL308 225 (setting [6]), above 4 µg/mL.
For `CN(C)[C@@H]1C(O)=C(C(N)=O)C(=O)[C@@]2(O)C(O)=C3C(=O)c4c(O)ccc(-c5cc6ccccc6o5)c4C[C@H]3C[C@@H]12` [drawing 3311] the same measures were below 4 µg/mL and below 4 µg/mL.
For the molecule `CN(C)[C@@H]1C(O)=C(C(N)=O)C(=O)[C@@]2(O)C(O)=C3C(=O)c4c(O)ccc(-c5ccc(NC(=O)OC(C)(C)C)cc5)c4C[C@H]3C[C@@H]12`, the MIC in the assay with S. aureus RN450 (setting [3]) and in the assay on E. coli mL308 225 (setting [4]) was below 4 µg/mL throughout.
Turning to `C[C@H]1c2c(CN)ccc(O)c2C(=O)C2=C(O)[C@]3(O)C(=O)C(C(N)=O)=C(O)[C@@H](N(C)C)[C@@H]3[C@@H](O)[C@@H]21`, the MIC in the assay on S. aureus RN450 (setting [3]) and in the assay with E. coli mL308 225 (setting [4]) was above 4 µg/mL throughout.
Regarding `CN(C)[C@@H]1C(O)=C(C(N)=O)C(=O)[C@@]2(O)C(O)=C3C(=O)c4c(ccc(N5CCCCC5)c4O)C[C@H]3C[C@@H]12`, the MIC in the assay on S. aureus RN450 (setting [3]) and with E. coli mL308 225 (setting [4]) was above 4 µg/mL throughout.
For `CN(C)[C@@H]1C(O)=C(C(N)=O)C(=O)[C@@]2(O)C(O)=C3C(=O)c4c(O)c(C(C)(C)C)cc(C(N)C(=O)O)c4C[C@H]3C[C@@H]12` (stereo partly shown) [FS], the MIC with S. aureus RN450 (setting [1]) and in the assay with E. coli mL308 225 (setting [2]) was above 4 µg/mL each time.
`CN(C)c1cc(-c2ccc(C(=O)O)cc2)c(O)c2c1C[C@H]1C[C@H]3[C@H](N(C)C)C(O)=C(C(N)=O)C(=O)[C@@]3(O)C(O)=C1C2=O`: the MIC in the assay with S. aureus RN450 (setting [5]) and in the assay with E. coli mL308 225 (setting [6]) was below 4 µg/mL in each case.
Turning to `C[C@H]1c2c(Br)ccc(O)c2C(=O)C2=C(O)[C@]3(O)C(=O)C(C(N)=O)=C(O)[C@@H](N(C)C)[C@@H]3[C@@H](O)[C@@H]21`, the MIC with S. aureus RN450 (setting [3]) and in the assay on E. coli mL308 225 (setting [4]) was above 4 µg/mL each time.
With `COc1ccc(OC)c(-c2ccc(O)c3c2C[C@H]2C[C@H]4[C@H](N(C)C)C(O)=C(C(N)=O)C(=O)[C@@]4(O)C(O)=C2C3=O)c1`, the MIC in the assay with S. aureus RN450 (setting [5]) and in the assay on E. coli mL308 225 (setting [6]) was below 4 µg/mL in each case.
Regarding `CCCCOC(=O)c1ccc(O)c2c1C[C@H]1C[C@H]3[C@H](N(C)C)C(O)=C(C(N)=O)C(=O)[C@@]3(O)C(O)=C1C2=O`, the MIC in the assay with S. aureus RN450 (setting [3]) and in the assay with E. coli mL308 225 (setting [4]) was below 4 µg/mL each time.
On to `CN(C)c1cc(-c2ccc(F)cc2F)c(O)c2c1C[C@H]1C[C@H]3[C@H](N(C)C)C(O)=C(C(N)=O)C(=O)[C@@]3(O)C(O)=C1C2=O`, for which the MIC in the assay with S. aureus RN450 (setting [5]) and in the assay with E. coli mL308 225 (setting [6]) was below 4 µg/mL throughout.
For `CCCC#Cc1cc(N(C)C)c2c(c1O)C(=O)C1=C(O)[C@]3(O)C(=O)C(C(N)=O)=C(O)[C@@H](N(C)C)[C@@H]3C[C@@H]1C2` [DY], the figures for the MIC with S. aureus RN450 (setting [1]) and with E. coli mL308 225 (setting [2]) were below 4 µg/mL and above 4 µg/mL, respectively.
